US20080194630A1, “LTA4H modulators and uses thereof” (priority 2007, published 2008)

Tests used:
[1] = test system: LTB4 production in murine whole blood (LTA4H); experiment: LTB4 production by calcium ionophore-stimulated murine blood for LTA4H inhibitor activity; format: cell-based, CD-1 mice; settings: CD-1 mouse blood diluted 1:15, calcium ionophore A23187 20 ng/mL, LTB4 by enzyme-linked immunoassay
[2] = test system: ex vivo stimulated LTB4 production; experiment: Murine arachidonic acid-induced inflammation model: ex vivo stimulated LTB4 production in blood; set-up: species or system female Balb/c mice; settings: 30 mg/kg oral gavage, blood taken 3 h after arachidonic acid, ex vivo A23187 stimulation, vs animals without inhibitor
Experimental: Murine arachidonic acid-induced inflammation model
LTA4H inhibitor compounds of the present invention were dissolved in 20% cyclodextran/H2O at a concentration of 3 mg/mL. The solutions were administered by oral gavage to female Balb/c mice weighing approximately 20 grams each (0.2 mL per mouse, 30 mg of LTA4H inhibitor compound per kg). Sixty minutes after being administered an LTA4 inhibitor, each mouse received topical application of 20 μL of arachidonic acid (100 mg/mL in acetone) to the left ear and 20 μL of acetone only to the right ear. After 3 h, the mice were sacrificed, blood was withdrawn in heparinized syringes, and 8 mm ear biopsies were taken. […]
One hundred-microliter aliquots of heparinized blood were added to wells of a microtiter plate, along with equal volumes of RPMI-1640 medium, and calcium ionophore A23187 was added to each sample well (final concentration=20 ng/μL). […] Supernatants were analyzed for LTB4 by a commercially available enzyme-linked immunoassay (Cayman Chemical Co.) in accordance with the manufacturer's instructions. The percent inhibition of ex vivo stimulated LTB4 production (% Inh. LTB4) was determined by comparison to animals treated identically except that the solution admininstered by oral gavage was devoid of inhibitor compound.

[3] = test system: neutrophil influx (myeloperoxidase, MPO); experiment: Murine arachidonic acid-induced inflammation model: neutrophil influx in ear (myeloperoxidase activity); format: in vivo, female Balb/c mice; settings: Mus musculus, 30 mg/kg oral gavage 60 min before topical arachidonic acid, ear biopsy after 3 h, vs animals without inhibitor
Experimental: Murine arachidonic acid-induced inflammation model LTA4H inhibitor compounds of the present invention were dissolved in 20% cyclodextran/H2O at a concentration of 3 mg/mL. The solutions were administered by oral gavage to female Balb/c mice weighing approximately 20 grams each (0.2 mL per mouse, 30 mg of LTA4H inhibitor compound per kg). Sixty minutes after being administered an LTA4 inhibitor, each mouse received topical application of 20 μL of arachidonic acid (100 mg/mL in acetone) to the left ear and 20 μL of acetone only to the right ear. After 3 h, the mice were sacrificed, blood was withdrawn in heparinized syringes, and 8 mm ear biopsies were taken. Ear biopsies were weighed to determine edema and then frozen at -80° C. until needed for determination of neutrophil influx. Neutrophil influx was quantified by measuring the activity of myeloperoxidase (MPO), a neutrophil-specific enzyme. […] Debris was removed by centrifugation at 14000×g for 10 min. […] The microtiter plate contents were held at room temperature for 1 h. […] H2SO4 to each sample well, and the myeloperoxidase activity in each sample was determined from the absorbance at 405 nm. […] The percent inhibition of neutrophil influx (% Inh. MPO) by compounds of the invention was determined by comparison to animals treated identically, except that the solution administered by oral gavage was devoid of inhibitor compound.

atopic dermatitis = settings: small open-label trial in AD; cited from earlier work
pruritus = settings: human, in vivo; cited from earlier work
[4] = test system: ionophore-induced LTB4 production; settings: oral administration; cited from earlier work
[5] = test system: ionophore-induced LTB4 production; settings: oral administration; cited from earlier work; remark: listed apart in the source

**Q.** Which results are given for `CC(C)N(CCC(=O)O)CCc1ccc(Oc2nc3ccccc3s2)cc1` [Example 180, 3-({2-[4-(Benzothiazol-2-yloxy)-phenyl]-ethyl}-isopropyl-amino)-propionic acid]?
**A.** IC50 [1]: 15 nM; inhibition at 30 mg/kg ([2]; Mus musculus, read-out: % Inh. LTB4): 87%; inhibition at 30 mg/kg [3]: 87%

**Q.** Which results are given for `CC(c1cc2ccccc2s1)N(O)C(N)=O` (centres unmarked) [zileuton]?
**A.** effects in atopic dermatitis (atopic dermatitis): beneficial effects; pruritus in Sjögren-Larsson syndrome patients (pruritus): relieving the pruritus

**Q.** What does the source list for `CN(CCCOc1ccc(Cc2ccccc2)cc1)CCC(=O)O.Cl` [SC57461]?
**A.** ionophore-induced LTB4 production in mouse blood ex vivo [4]: caused inhibition; ionophore-induced LTB4 production in rat peritoneum in vivo [5]: caused inhibition

**Q.** With `O=C(O)C1CCN(Cc2ccc(Oc3nc4ccccc4s3)cc2)CC1` [Example 250, 1-[4-(Benzothiazol-2-yloxy)-benzyl]-piperidine-4-carboxylic acid] as the molecule, how does the “% Inh. LTB4” value [2] read?
**A.** Its value is 80%.
